# Structures can show the parent of a compound that is named as a salt.
# Target: T1, haematopoietic prostaglandin D synthase (H-PGDS) (Homo sapiens, UniProt O60760)
# T1 construct: Full length human H-PGDS cDNA (Invitrogen Ultimate ORF 10H13026) was amplified by PCR; 6-His (N); TEV protease cleavage site (N); made in house; host or cells: E. coli BL21 (DE3*), vector pET22b+
# Assay: H-PGDS RapidFire high throughput mass spectrometry assay (conversion of PGH2 to PGD2)
# Format: biochemical
# Details: 10 nM H-PGDS, PGH2 formed in situ by COX-2 from arachidonic acid; read-out: Potency Range (mean pIC50) (converted)
# Outline: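 PGH2 substrate generated in situ by COX-2 (full-length human, FLAG-tagged, Sf9-expressed) from arachidonic acid at ˜10 μM, then converted by full-length human His-tagged H-PGDS (E. coli-expressed). RapidFire SPE–triple quadrupole MS measured PGD2 against PGF2α as substrate surrogate to give percent conversion.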
# T1 sequence (O60760 whole entry): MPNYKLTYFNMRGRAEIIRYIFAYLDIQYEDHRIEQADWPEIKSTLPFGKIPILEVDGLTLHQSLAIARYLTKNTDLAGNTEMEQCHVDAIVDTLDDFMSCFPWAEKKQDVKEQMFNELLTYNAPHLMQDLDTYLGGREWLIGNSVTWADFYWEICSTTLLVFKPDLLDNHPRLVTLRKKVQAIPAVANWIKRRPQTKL
row,Structure (SMILES),IC50 [nM]
1,"CN(C)C(=O)c1coc(NC(=O)[C@H]2C[C@H](Oc3cccc4cccnc34)C2)n1 [Example 172, N,N-Dimethyl-2-((trans)-3-(quinolin-8-yloxy)cyclobutanecarboxamido)oxazole-4-carboxamide]",10 to 79.4
2,"CC(N[C@H]1CC[C@H](NC(=O)N2CC(Oc3cccc4scnc34)C2)CC1)C(F)F (mixture of isomers) [Example 40, Racemic 3-(Benzo[d]thiazol-4-yloxy)-N-((trans)-4-((1,1-difluoropropan-2-yl)amino)cyclohexyl)azetidine-1-carboxamide]",10 to 79.4
3,"O=C(NC1CN(c2ccc(F)cn2)C1)[C@H]1C[C@H](Oc2cc(F)cc3scnc23)C1 [Example 120, (trans)-3-((6-Fluorobenzo[d]thiazol-4-yl)oxy)-N-(1-(5-fluoropyridin-2-yl)azetidin-3-yl)cyclobutanecarboxamide]",10 to 79.4
4,"COc1ccc(F)cc1O[C@H]1C[C@H](NC(=O)[C@H]2CC[C@H](C(C)(C)O)CC2)C1 [Example 162, (trans)-N-((trans)-3-(5-Fluoro-2-methoxyphenoxy)cyclobutyl)-4-(2-hydroxypropan-2-yl)cyclohexanecarboxamide]",100 to 1000
5,"C[C@]1(O)C[C@@H](NC(=O)[C@H]2C[C@H](Oc3cc(F)cc4scnc34)C2)C1 [Example 131, (trans)-3-((6-Fluorobenzo[d]thiazol-4-yl)oxy)-N-((cis)-3-hydroxy-3-methylcyclobutyl)cyclobutanecarboxamide]",100 to 1000
6,"O=C(Nc1nc(C2CC2)cs1)[C@H]1C[C@H](Oc2cccc3cccnc23)C1 [Example 207, (trans)-N-(4-Cyclopropylthiazol-2-yl)-3-(quinolin-8-yloxy)cyclobutanecarboxamide]",< 10
7,"N#Cc1cnc(NC(=O)[C@H]2C[C@H](Oc3cccc4cccnc34)C2)s1 [Example 190, (trans)-N-(5-Cyanothiazol-2-yl)-3-(quinolin-8-yloxy)cyclobutanecarboxamide]",10 to 79.4
8,"O=C(NC1CN(c2ccc(F)cn2)C1)[C@H]1C[C@H](Oc2cccc3scnc23)C1 [Example 44, (trans)-3-(Benzo[d]thiazol-4-yloxy)-N-(1-(5-fluoropyridin-2-yl)azetidin-3-yl)cyclobutanecarboxamide]",10 to 79.4
9,"O=C(Nc1cccc(N2CCOCC2)c1)N1CC(Oc2cccc3scnc23)C1 [Example 309, 3-(Benzo[d]thiazol-4-yloxy)-N-(3-morpholinophenyl)azetidine-1-carboxamide]",100 to 1000
10,"Cc1ccc(N2CC(NC(=O)[C@H]3C[C@H](Oc4cccc5scnc45)C3)C2)nc1 [Example 239, (trans)-3-(Benzo[d]thiazol-4-yloxy)-N-(1-(5-methylpyridin-2-yl)azetidin-3-yl)cyclobutanecarboxamide]",10 to 79.4
11,CC1(NC(=O)N2CC(Oc3cccc4scnc34)C2)CN(c2ncccn2)C1 [Example 251],100 to 1000
12,"O=C(Nc1ncc(CO)s1)[C@H]1C[C@H](Oc2cc(F)ccc2OC(F)F)C1 [Example 12, (trans)-3-(2-(Difluoromethoxy)-5-fluorophenoxy)-N-(5-(hydroxymethyl)thiazol-2-yl)cyclobutanecarboxamide]",10 to 79.4
13,"COc1ccc(F)cc1O[C@H]1C[C@H](C(=O)Nc2nc(C(C)=O)cs2)C1 [Example 163, (trans)-N-(4-Acetylthiazol-2-yl)-3-(5-fluoro-2-methoxyphenoxy)cyclobutanecarboxamide]",10 to 79.4
14,"CC(C)(O)[C@H]1CC[C@H](NC(=O)[C@H]2C[C@H](Oc3cccc4scnc34)C2)CC1 [Example 109, (trans)-3-(Benzo[d]thiazol-4-yloxy)-N-((trans)-4-(2-hydroxypropan-2-yl)cyclohexyl)cyclobutanecarboxamide]",10 to 79.4
15,"CC(C)(O)C1CC2(CC(NC(=O)[C@H]3C[C@H](Oc4cc(F)cc5scnc45)C3)C2)C1 (mixture of isomers) [Example 116, Racemic (trans)-3-((6-Fluorobenzo[d]thiazol-4-yl)oxy)-N-(6-(2-hydroxypropan-2-yl)spiro[3.3]heptan-2-yl)cyclobutanecarboxamide]",10 to 79.4
16,"CC(C)(O)[C@@H]1CC[C@@H](NC(=O)[C@H]2C[C@H](Oc3cccc4scnc34)C2)CO1 (racemic) [Example 51, Racemic (trans)-3-(Benzo[d]thiazol-4-yloxy)-N-((trans)-6-(2-hydroxypropan-2-yl)tetrahydro-2H-pyran-3-yl)cyclobutanecarboxamide]",10 to 79.4
17,"O=C(Nc1ccncc1)N1CC(Oc2cccc3scnc23)C1 [Example 63, 3-(Benzo[d]thiazol-4-yloxy)-N-(pyridin-4-yl)azetidine-1-carboxamide]",100 to 1000
18,O=C(NCc1cccs1)[C@H]1C[C@H](Oc2cccc3scnc23)C1 [Example 250],100 to 1000

row,Structure (SMILES),IC50 [nM]
1,"COCCO[C@H]1CC[C@H](NC(=O)[C@H]2C[C@H](Oc3cccc4scnc34)C2)CC1 [Example 58, (trans)-3-(Benzo[d]thiazol-4-yloxy)-N-((trans)-4-(2-methoxyethoxy)cyclohexyl)cyclobutanecarboxamide]",100 to 1000
2,"CC(C)(O)[C@H]1CC[C@H](NC(=O)[C@H]2C[C@H](Oc3cc(F)cc(F)c3)C2)CC1 [Example 283, (trans)-3-(3,5-Difluorophenoxy)-N-((trans)-4-(2-hydroxypropan-2-yl)cyclohexyl)cyclobutanecarboxamide]",100 to 1000
3,"COc1ccc(F)cc1O[C@H]1C[C@H](C(=O)NC2CCN(c3nccs3)CC2)C1 [Example 154, (trans)-3-(5-Fluoro-2-methoxyphenoxy)-N-(1-(thiazol-2-yl)piperidin-4-yl)cyclobutanecarboxamide]",10 to 79.4
4,"COc1cncc(NC(=O)N2CC(Oc3cccc4scnc34)C2)c1 [Example 323, 3-(Benzo[d]thiazol-4-yloxy)-N-(5-methoxypyridin-3-yl)azetidine-1-carboxamide]",10 to 79.4
5,"Cc1cnnc(N2CC(NC(=O)[C@H]3C[C@H](Oc4cccc5scnc45)C3)C2)c1 [Example 241, (trans)-3-(Benzo[d]thiazol-4-yloxy)-N-(1-(5-methylpyridazin-3-yl)azetidin-3-yl)cyclobutanecarboxamide, trifluoroacetic acid salt]",10 to 79.4
6,"CC(C)(O)[C@H]1CC[C@H](NC(=O)[C@H]2C[C@H](Oc3cc(F)cc4scnc34)C2)CC1 [Example 140, (trans)-3-((6-Fluorobenzo[d]thiazol-4-yl)oxy)-N-((trans)-4-(2-hydroxypropan-2-yl)cyclohexyl)cyclobutanecarboxamide]",10 to 79.4
7,"CC(C)c1csc(NC(=O)[C@H]2C[C@H](Oc3cccc4cccnc34)C2)n1 [Example 206, (trans)-N-(4-Isopropylthiazol-2-yl)-3-(quinolin-8-yloxy)cyclobutanecarboxamide]",< 10
8,"CC(C)(O)c1cnc(NC(=O)[C@H]2C[C@H](Oc3cccc4ccoc34)C2)s1 [Example 265, (trans)-3-(Benzofuran-7-yloxy)-N-(5-(2-hydroxypropan-2-yl)thiazol-2-yl)cyclobutanecarboxamide]",10 to 79.4
9,"COc1ccc(Cl)cc1O[C@H]1C[C@H](C(=O)N[C@H]2CC[C@H](C(C)(C)O)CC2)C1 [Example 275, (trans)-3-(5-Chloro-2-methoxyphenoxy)-N-((trans)-4-(2-hydroxypropan-2-yl)cyclohexyl)cyclobutanecarboxamide]",10 to 79.4
10,"O=C(Nc1nccs1)[C@H]1C[C@H](Nc2cccc3cccnc23)C1 [Example 221, (trans)-3-(Quinolin-8-ylamino)-N-(thiazol-2-yl)cyclobutanecarboxamide]",100 to 1000
11,"Cc1cc(NC(=O)[C@H]2C[C@H](Oc3cccc4scnc34)C2)ncn1 [Example 307, (trans)-3-(Benzo[d]thiazol-4-yloxy)-N-(6-methylpyrimidin-4-yl)cyclobutanecarboxamide]",10 to 79.4
12,"C[C@]1(O)CC[C@H](NC(=O)[C@H]2C[C@H](Oc3cccc4cccnc34)C2)CC1 [Example 182, (trans)-N-((trans)-4-Hydroxy-4-methylcyclohexyl)-3-(quinolin-8-yloxy)cyclobutanecarboxamide]",100 to 1000
13,"O=C(N[C@H]1CC[C@H](NC(CO)C(F)(F)F)CC1)[C@H]1C[C@H](Oc2cc(F)cc3scnc23)C1 (mixture of isomers) [Example 126, Racemic (trans)-3-((6-Fluorobenzo[d]thiazol-4-yl)oxy)-N-((trans)-4-((1,1,1-trifluoro-3-hydroxypropan-2-yl)amino)cyclohexyl)cyclobutanecarboxamide]",10 to 79.4
14,"NC(=O)c1ccc(N2CC(NC(=O)[C@H]3C[C@H](Oc4cc(F)cc5scnc45)C3)C2)nc1 [Example 110, 6-(3-((trans)-3-(6-Fluorobenzo[d]thiazol-4-yloxy)cyclobutanecarboxamido)azetidin-1-yl)nicotinamide]",10 to 79.4
15,"CC(C)(O)[C@H]1CC[C@H](NC(=O)[C@H]2C[C@H](Oc3cccc(F)c3)C2)CC1 [Example 289, (trans)-3-(3-Fluorophenoxy)-N-((trans)-4-(2-hydroxypropan-2-yl)cyclohexyl)cyclobutanecarboxamide]",100 to 1000
16,"CC(C)(C)c1nnc(NC(=O)[C@H]2C[C@H](Oc3cc(F)ccc3OC(F)F)C2)o1 [Example 16, (trans)-N-(5-(tert-Butyl)-1,3,4-oxadiazol-2-yl)-3-(2-(difluoromethoxy)-5-fluorophenoxy)cyclobutanecarboxamide]",10 to 79.4
17,"C[C@@H]1[C@H](Oc2cccc3scnc23)CN1C(=O)N[C@H]1CC[C@H](C(C)(C)O)CC1 [Example 305, (2R,3R)-3-(Benzo[d]thiazol-4-yloxy)-N-((trans)-4-(2-hydroxypropan-2-yl)cyclohexyl)-2-methylazetidine-1-carboxamide]",10 to 79.4
18,"Cc1ccc(CNC(=O)[C@H]2C[C@H](Oc3cccc4scnc34)C2)o1 [Example 255, (trans)-3-(Benzo[d]thiazol-4-yloxy)-N-((5-methylfuran-2-yl)methyl)cyclobutanecarboxamide]",100 to 1000
